Test results: ChEMBL document CHEMBL5113480, “Discovery of novel biphenyl-substituted pyridone derivatives as potent non-nucleoside reverse transcriptase inhibitors with promising oral bioavailability” (Eur J Med Chem, 2022)

Columns and labels:
[1] = system: Human immunodeficiency virus 1; test: Antiviral activity against HIV-1 K103N mutant infected in human MT4 cells assessed as reduction in viral replication by MTT assay; format: functional, organism-based; conditions: Human immunodeficiency virus 1, K103N mutant
[2] = system: Human immunodeficiency virus 1; test: Antiviral activity against HIV-1 L100I mutant infected in human MT4 cells assessed as reduction in viral replication by MTT assay; format: functional, organism-based; conditions: Human immunodeficiency virus 1, L100I mutant
[3] = Selectivity index, ratio of CC50 for cytotoxicity against human MT4 cells to EC50 of Anti-HIV activity against HIV-1 IIIB infected in human MT4 cells; format: toxicity, cell-based; conditions: read-out: Ratio CC50/EC50
[4] = system: Human immunodeficiency virus 1; test: Antiviral activity against HIV-1 Y188L mutant infected in human MT4 cells assessed as reduction in viral replication by MTT assay; format: functional, organism-based; conditions: Human immunodeficiency virus 1, Y188L mutant
[5] = system: Human immunodeficiency virus 1; test: Antiviral activity against HIV-1 ROD infected in human MT4 cells assessed as reduction in viral replication by MTT assay; format: functional, organism-based
[6] = system: Human immunodeficiency virus 1; test: Antiviral activity against HIV-1 E138K mutant infected in human MT4 cells assessed as reduction in viral replication by MTT assay; format: functional, organism-based; conditions: Human immunodeficiency virus 1, E138K mutant
[7] = system: Human immunodeficiency virus 1; test: Antiviral activity against HIV-1 F227L-V106A mutant infected in human MT4 cells assessed as reduction in viral replication by MTT assay; format: functional, organism-based; conditions: Human immunodeficiency virus 1, F227L-V106A mutant
[8] = Cytotoxicity against human MT4 cells assessed as reduction on cell growth by MTT assay; format: toxicity, cell-based
[9] = system: Human immunodeficiency virus 1; test: Antiviral activity against HIV-1 IIIB infected in human MT4 cells assessed as reduction in viral replication by MTT assay; format: functional, organism-based; conditions: Human immunodeficiency virus 1, IIIB
[10] = target: Human immunodeficiency virus type 1 reverse transcriptase (Human immunodeficiency virus 1, UniProt Q72547); test: Inhibition of wild type HIV-1 Reverse transcriptase
[11] = system: Human immunodeficiency virus 1; test: Antiviral activity against HIV-1 Y181C mutant infected in human MT4 cells assessed as reduction in viral replication by MTT assay; format: functional, organism-based; conditions: Human immunodeficiency virus 1, Y181C mutant
[12] = system: Human immunodeficiency virus 1; test: Antiviral activity against HIV-1 K103N-Y181C mutant infected in human MT4 cells assessed as reduction in viral replication by MTT assay; format: functional, organism-based; conditions: Human immunodeficiency virus 1, K103N-Y181C mutant
Cytochrome P450 2D6 = Cytochrome P450 2D6 (Homo sapiens, UniProt P10635); test: Inhibition of CYP2D6 (unknown origin); format: ADME
Cytochrome P450 2D6, sequence (P10635 whole entry): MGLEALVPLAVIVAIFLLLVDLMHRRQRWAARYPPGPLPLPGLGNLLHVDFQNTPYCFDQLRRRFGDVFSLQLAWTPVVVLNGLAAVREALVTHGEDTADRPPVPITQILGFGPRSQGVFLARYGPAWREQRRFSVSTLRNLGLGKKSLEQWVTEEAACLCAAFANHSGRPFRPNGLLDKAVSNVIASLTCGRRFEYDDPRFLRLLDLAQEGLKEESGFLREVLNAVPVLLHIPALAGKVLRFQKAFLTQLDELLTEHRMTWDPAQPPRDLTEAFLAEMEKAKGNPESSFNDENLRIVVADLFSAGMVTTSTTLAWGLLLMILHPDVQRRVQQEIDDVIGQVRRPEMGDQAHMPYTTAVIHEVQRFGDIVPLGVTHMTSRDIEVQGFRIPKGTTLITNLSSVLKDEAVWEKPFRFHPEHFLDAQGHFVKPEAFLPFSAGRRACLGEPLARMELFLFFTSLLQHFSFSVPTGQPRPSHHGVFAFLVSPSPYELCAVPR

[13] = target: Voltage-gated inwardly rectifying potassium channel KCNH2 (Homo sapiens, UniProt Q12809); test: Inhibition of human ERG potassium channel expressed in CHO cells by automated patch clamp electrophysiological assay; format: toxicity, cell-based
Voltage-gated inwardly rectifying potassium channel KCNH2, sequence (Q12809 whole entry): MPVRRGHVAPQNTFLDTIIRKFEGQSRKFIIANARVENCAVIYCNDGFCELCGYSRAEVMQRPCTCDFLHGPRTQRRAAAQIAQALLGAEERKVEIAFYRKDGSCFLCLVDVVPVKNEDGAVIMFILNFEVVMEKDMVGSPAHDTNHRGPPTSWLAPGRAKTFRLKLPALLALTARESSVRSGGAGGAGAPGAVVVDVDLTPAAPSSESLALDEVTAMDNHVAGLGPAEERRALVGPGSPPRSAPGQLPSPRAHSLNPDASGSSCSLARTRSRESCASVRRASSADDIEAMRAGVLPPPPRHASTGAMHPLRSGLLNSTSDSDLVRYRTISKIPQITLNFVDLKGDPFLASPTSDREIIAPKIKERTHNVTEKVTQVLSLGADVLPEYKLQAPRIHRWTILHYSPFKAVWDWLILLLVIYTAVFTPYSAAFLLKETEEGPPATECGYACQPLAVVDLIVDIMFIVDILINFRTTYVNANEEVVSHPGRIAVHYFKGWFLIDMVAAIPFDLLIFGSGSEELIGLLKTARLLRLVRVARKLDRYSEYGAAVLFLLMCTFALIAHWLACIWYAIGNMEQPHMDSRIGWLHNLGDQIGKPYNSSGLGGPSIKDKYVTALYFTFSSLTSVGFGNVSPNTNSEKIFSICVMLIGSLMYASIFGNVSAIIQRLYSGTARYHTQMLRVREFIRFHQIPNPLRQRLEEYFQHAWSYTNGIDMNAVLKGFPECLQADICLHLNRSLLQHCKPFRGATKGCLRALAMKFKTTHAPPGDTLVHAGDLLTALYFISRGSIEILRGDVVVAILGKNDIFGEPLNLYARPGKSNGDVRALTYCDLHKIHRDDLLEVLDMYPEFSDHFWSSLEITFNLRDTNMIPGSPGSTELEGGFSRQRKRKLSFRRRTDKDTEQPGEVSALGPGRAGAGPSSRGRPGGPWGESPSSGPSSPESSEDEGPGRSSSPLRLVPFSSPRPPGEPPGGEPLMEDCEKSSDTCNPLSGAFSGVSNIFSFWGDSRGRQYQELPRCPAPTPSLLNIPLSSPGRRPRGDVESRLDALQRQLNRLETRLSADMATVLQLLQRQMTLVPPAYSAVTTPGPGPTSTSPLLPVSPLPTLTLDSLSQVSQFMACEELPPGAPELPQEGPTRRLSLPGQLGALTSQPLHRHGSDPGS

COc1cc(-c2ccc(C#N)cc2)ccc1Oc1c(C(F)(F)F)ccn(Cc2n[nH]c(=O)n2C)c1=O
EC50 [1]: 13000 nM | EC50 [2]: 3770 nM | selectivity ratio [3]: 17.6 | EC50 [4]: > 35000 nM | EC50 [5]: > 35000 nM | EC50 [6]: 19500 nM | EC50 [7]: > 35000 nM | CC50 [8]: 142000 nM | EC50 [9]: 8020 nM | IC50 [10]: 24600 nM | EC50 [11]: 21300 nM | EC50 [12]: > 35000 nM

Cn1c(Cn2ccc(C(F)(F)F)c(Oc3c(F)cc(-c4cccc(F)c4)cc3F)c2=O)n[nH]c1=O
EC50 [1]: 6340 nM | EC50 [2]: 4150 nM | selectivity ratio [3]: 4.42 | EC50 [4]: > 35000 nM | EC50 [5]: > 35000 nM | EC50 [6]: 6810 nM | EC50 [7]: > 35000 nM | CC50 [8]: 25400 nM | EC50 [9]: 5740 nM | IC50 [10]: 26300 nM | EC50 [11]: > 35000 nM | EC50 [12]: > 35000 nM

Cn1c(Cn2ccc(C(F)(F)F)c(Oc3c(F)cc(-c4cccc(C#N)c4)cc3F)c2=O)n[nH]c1=O
EC50 [1]: 2240 nM | EC50 [2]: 1850 nM | selectivity ratio [3]: 18.7 | EC50 [4]: > 35000 nM | EC50 [5]: > 35000 nM | EC50 [6]: 3060 nM | EC50 [7]: > 35000 nM | CC50 [8]: 21200 nM | EC50 [9]: 1140 nM | IC50 [10]: 2570 nM | EC50 [11]: 8640 nM | EC50 [12]: > 35000 nM

Cn1c(Cn2ccc(C(F)(F)F)c(Oc3c(F)cc(-c4ccc(F)c(C#N)c4)cc3F)c2=O)n[nH]c1=O
EC50 [1]: 1200 nM | EC50 [2]: 1610 nM | selectivity ratio [3]: 30.7 | EC50 [4]: > 35000 nM | EC50 [5]: > 35000 nM | EC50 [6]: 2090 nM | EC50 [7]: > 35000 nM | CC50 [8]: 19000 nM | EC50 [9]: 620 nM | IC50 [10]: 1650 nM | EC50 [11]: 4690 nM | EC50 [12]: > 35000 nM

Cn1c(Cn2ccc(C(F)(F)F)c(Oc3cc(C#N)cc(-c4ccc(F)c(C#N)c4)c3)c2=O)n[nH]c1=O
EC50 [1]: 51 nM | EC50 [2]: 89 nM | selectivity ratio [3]: 2060 | EC50 [4]: 1520 nM | EC50 [5]: > 35000 nM | EC50 [6]: 77 nM | EC50 [7]: > 35000 nM | CC50 [8]: 87900 nM | EC50 [9]: 43 nM | IC50 [10]: 290 nM | EC50 [11]: 450 nM | EC50 [12]: 1010 nM

Cn1c(Cn2ccc(C(F)(F)F)c(Oc3cc(C#N)cc(-c4cc(F)cc(C#N)c4)c3)c2=O)n[nH]c1=O
EC50 [1]: 26 nM | EC50 [2]: 50 nM | selectivity ratio [3]: 2810 | EC50 [4]: 880 nM | EC50 [5]: > 35000 nM | EC50 [6]: 62 nM | EC50 [7]: > 35000 nM | CC50 [8]: 84400 nM | EC50 [9]: 30 nM | IC50 [10]: 170 nM | EC50 [11]: 180 nM | EC50 [12]: 420 nM

Cn1c(Cn2ccc(C(F)(F)F)c(Oc3cc(C#N)cc(-c4ccc(F)cc4)c3)c2=O)n[nH]c1=O
EC50 [1]: 42 nM | EC50 [2]: 88 nM | selectivity ratio [3]: > 4840 | EC50 [4]: 3560 nM | EC50 [5]: > 35000 nM | EC50 [6]: 120 nM | EC50 [7]: > 35000 nM | CC50 [8]: > 267000 nM | EC50 [9]: 53 nM | IC50 [10]: 110 nM | EC50 [11]: 340 nM | EC50 [12]: 1460 nM

Cn1c(Cn2ccc(C(F)(F)F)c(Oc3cc(C#N)cc(-c4ccc(C#N)cc4)c3)c2=O)n[nH]c1=O
EC50 [1]: 78 nM | EC50 [2]: 70 nM | selectivity ratio [3]: 3110 | EC50 [4]: 610 nM | EC50 [5]: > 35000 nM | EC50 [6]: 82 nM | EC50 [7]: > 35000 nM | CC50 [8]: 142000 nM | EC50 [9]: 46 nM | IC50 [10]: 520 nM | EC50 [11]: 450 nM | EC50 [12]: 2000 nM

Cc1ccc(-c2cc(C#N)cc(Oc3c(C(F)(F)F)ccn(Cc4n[nH]c(=O)n4C)c3=O)c2)cc1
EC50 [1]: 540 nM | EC50 [2]: 97 nM | selectivity ratio [3]: > 1150 | EC50 [4]: 1660 nM | EC50 [5]: > 35000 nM | EC50 [6]: 150 nM | EC50 [7]: > 35000 nM | CC50 [8]: > 267000 nM | EC50 [9]: 230 nM | IC50 [10]: 1530 nM | EC50 [11]: 210 nM | EC50 [12]: 5130 nM

Cn1c(Cn2ccc(C(F)(F)F)c(Oc3cc(C#N)cc(-c4cccc(C#N)c4)c3)c2=O)n[nH]c1=O
EC50 [1]: 26 nM | EC50 [2]: 16 nM | selectivity ratio [3]: 4500 | EC50 [4]: 360 nM | EC50 [5]: > 35000 nM | EC50 [6]: 26 nM | EC50 [7]: > 35000 nM | CC50 [8]: 101000 nM | EC50 [9]: 23 nM | IC50 [10]: 210 nM | EC50 [11]: 120 nM | EC50 [12]: 260 nM

COc1cc(-c2cc(F)cc(C#N)c2)ccc1Oc1c(C(F)(F)F)ccn(Cc2n[nH]c(=O)n2C)c1=O
EC50 [1]: 16000 nM | EC50 [2]: 7770 nM | selectivity ratio [3]: 10.4 | EC50 [4]: > 35000 nM | EC50 [5]: > 35000 nM | EC50 [6]: 20500 nM | EC50 [7]: > 35000 nM | CC50 [8]: 113000 nM | EC50 [9]: 10800 nM | IC50 [10]: 27800 nM | EC50 [11]: 14200 nM | EC50 [12]: > 35000 nM

Cn1c(Cn2ccc(C(F)(F)F)c(Oc3c(F)cc(-c4ccc(C#N)cc4)cc3F)c2=O)n[nH]c1=O
EC50 [1]: 1140 nM | EC50 [2]: 1690 nM | selectivity ratio [3]: 29.5 | EC50 [4]: > 35000 nM | EC50 [5]: > 35000 nM | EC50 [6]: 1460 nM | EC50 [7]: > 35000 nM | CC50 [8]: 21200 nM | EC50 [9]: 720 nM | IC50 [10]: 3130 nM | EC50 [11]: 4970 nM | EC50 [12]: > 35000 nM

Cn1c(Cn2ccc(C(F)(F)F)c(Oc3cc(C#N)cc(-c4cccc(F)c4)c3)c2=O)n[nH]c1=O
EC50 [1]: 12 nM | EC50 [2]: 21 nM | selectivity ratio [3]: 1270 | EC50 [4]: 830 nM | EC50 [5]: > 35000 nM | EC50 [6]: 21 nM | EC50 [7]: > 35000 nM | CC50 [8]: 19100 nM | EC50 [9]: 15 nM | IC50 [10]: 56 nM | EC50 [11]: 54 nM | EC50 [12]: 310 nM

Cn1c(Cn2ccc(C(F)(F)F)c(Oc3c(F)cc(-c4cc(F)cc(C#N)c4)cc3F)c2=O)n[nH]c1=O
EC50 [1]: 2070 nM | EC50 [2]: 2970 nM | selectivity ratio [3]: 10.2 | EC50 [4]: > 35000 nM | EC50 [5]: > 35000 nM | EC50 [6]: 5200 nM | EC50 [7]: > 35000 nM | CC50 [8]: 16600 nM | EC50 [9]: 1640 nM | IC50 [10]: 3250 nM | EC50 [11]: > 35000 nM | EC50 [12]: > 35000 nM

COc1ccc2c(c1)[C@]13CCCC[C@@H]1[C@H](C2)N(C)CC3 [DEXTROMETHORPHAN]
IC50 (Cytochrome P450 2D6): 43 nM

Cn1c(Cn2ccc(C(F)(F)F)c(Oc3cc(Cl)cc(C#N)c3)c2=O)n[nH]c1=O [DORAVIRINE]
EC50 [1]: 42 nM | EC50 [2]: 6.6 nM | selectivity ratio [3]: 22600 | EC50 [4]: 500 nM | IC50 [13]: 88000 nM | EC50 [5]: > 35000 nM | EC50 [6]: 7.5 nM | EC50 [7]: 17400 nM | CC50 [8]: 293000 nM | IC50 [10]: 44 nM | EC50 [11]: 25 nM | EC50 [12]: 142 nM
